ChEMBL document CHEMBL1133264, “Development of peptidyl alpha-keto-beta-aldehydes as new inhibitors of cathepsin L--comparisons of potency and selectivity profiles with cathepsin B” (Bioorg Med Chem Lett, 2000)

Tests used:
[1] = target: Cathepsin B (Bos taurus, UniProt P07688); assay: Ability to block cathepsin B-catalyzed hydrolysis of the fluorogenic substrate Z-Arg-Arg-NHMec
[2] = target: T1, Procathepsin L (Homo sapiens, UniProt P07711); assay: Ability to block cathepsin L-catalyzed hydrolysis of the fluorogenic substrate Z-Phe-Arg-NHMec
T1 sequence (P07711 whole entry): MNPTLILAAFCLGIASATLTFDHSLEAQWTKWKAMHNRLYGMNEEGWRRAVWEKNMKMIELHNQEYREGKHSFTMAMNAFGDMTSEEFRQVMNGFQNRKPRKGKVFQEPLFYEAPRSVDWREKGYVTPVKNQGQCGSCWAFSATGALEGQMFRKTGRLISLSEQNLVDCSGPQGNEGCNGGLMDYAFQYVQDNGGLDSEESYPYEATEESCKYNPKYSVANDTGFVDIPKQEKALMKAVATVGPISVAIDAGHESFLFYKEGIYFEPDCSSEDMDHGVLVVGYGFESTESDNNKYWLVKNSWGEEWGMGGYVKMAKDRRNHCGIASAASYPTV

[3] = target: T1, Procathepsin L; assay: Ability to block cathepsin L-catalyzed hydrolysis of the fluorogenic substrate Z-Phe-Arg-NHMec, at 100 uM conc.; no inhibition

| Ki [1] [nM] | Ki [2] [nM] | Ki [3] | Structure (SMILES) |
| --- | --- | --- | --- |
| 1250 | 970 | – | CC(=O)N[C@@H](CC(C)C)C(=O)N[C@@H](CC(C)C)C(=O)N[C@@H](CCCN=C(N)N)C(=O)C=O |
| 214 | 0.6 | – | CCCCOc1ccc(C[C@H](NC(=O)[C@H](Cc2ccccc2)NC(=O)OCc2ccccc2)C(=O)C=O)cc1 |
| 640 | – | Not Active | CC(=O)N[C@@H](CCCN=C(N)N)C(=O)N[C@@H](CCCN=C(N)N)C(=O)C=O |
| 40 | 90 | – | N=C(N)NCCC[C@H](NC(=O)[C@H](Cc1ccccc1)C(=O)OCc1ccccc1)C(=O)C=O |
